# Measured values: publication PMC4122966, “Novel VCP modulators mitigate major pathologies of rd10, a mouse model of retinitis pigmentosa” (Scientific Reports, 2014)
# Values joined by “and” are separate entries in the source; they are usually repeats but may differ in a detail not shown here. Identical values can stand only once.
# Assays:
# [1] = test system: tunicamycin-treated HeLa cells; assay: western blot of ER stress markers and phospho-Akt in tunicamycin-treated cells; assay type: cell-based; settings: Tm 0.5 μg/ml, 5 hours
# Protocol: Figure 2 Prevention of cell death and ER stress by KUSs. (a) Photographs of HeLa cells, cultured with DMSO (DMSO) or KUSs (KUS94, KUS121, and KUS187, 20 μM each) for 41 hours in low glucose (0.2 g/l) medium. Scale bar, 100 μm. (b–e) WST (water-soluble tetrazolium salts) values reflecting relative live cell numbers are shown, as optical density (OD) at 450 nm. Error bars indicate SD. (b) WST values of HeLa cells, cultured in low glucose (0.2 g/l) with DMSO (control) or KUSs (50 μM for KUS121; 20 μM for KUS69, KUS94, and KUS187, n = 3) for 41 hours. (c) Cell viability, indicated by WST values of HeLa cells, cultured with tunicamycin (Tm) (0.2 μg/ml) for 41 hours with KUSs (20 μM each, n = 3). (d) WST values of HEK293 cells, cultured under serum-free conditions for 65 hours with DMSO (control) or KUSs (20 μM each, n = 3). *** P < 0.001, vs. DMSO control (Dunnett's test). (e) WST values of HeLa cells, cultured in low glucose (0.2 g/l) medium with different concentrations of KUS121 (5, 10, 20, and 50 μM, n = 3) for 41 hours. ** P = 0.008, *** P < 0.001, vs. DMSO control (Dunnett's test). […]
# Figure 4 KUSs and ATP each prevented a decrease of ATP levels and ameliorated ER stress in tunicamycin-treated cells. […] Normally growing HeLa cells were also analyzed (Control). […] Then, ATP amounts from 1.5 × 10^5 cells were measured. * P < 0.05, ** P < 0.01. […]
# HeLa cells [2] = assay: immunocytochemistry of laminin γ1 aggregation in tunicamycin-treated cells; assay type: cell-based
# Protocol: (§1) Figure 4 KUSs and ATP each prevented a decrease of ATP levels and ameliorated ER stress in tunicamycin-treated cells. (a) Immunocytochemical analyses of HeLa cells by an anti-laminin γ1 antibody. HeLa cells were treated with 0.5 μg/ml of tunicamycin (Tm) for 5 hours in the presence of KUSs (50 μM), ATP (0.1, 0.3, and 1 mM), methylpyruvate (MePyr) (3 and 10 mM), or vehicle alone (DMSO). Then, cells were fixed and subjected to immunocytochemical analyses. Normally growing HeLa cells were also analyzed (Control). Scale bar, 10 μm. (b) Measurements of the relative amounts of ATP per cell. HeLa cells were treated with tunicamycin (Tm, 0.5 μg/ml) for 24 hours in the presence of KUSs (50 μM) or ATP (0.1 and 1 mM), or vehicle alone (DMSO), and were harvested. Then, ATP amounts from 1.5 × 10^5 cells were measured. * P < 0.05, ** P < 0.01. Error bars indicate SD. (c) Western blot analyses on CHOP. HeLa cells were treated with 0.5 μg/ml of tunicamycin for 5 hours in the presence of KUSs (50 μM), ATP (0.1, 0.3, and 1 mM), methylpyruvate (MePyr) (3 and 10 mM), or vehicle alone (-). Then, cells were harvested and subjected to western blot analyses. Actin served as a loading control. Complete scans of the different blots are presented in Supplementary Fig. 9.
# cellular VCP functions = assay: immunoblot of ubiquitinated proteins, CHOP (ER stress) and LC3 (autophagy) in cultured cells; assay type: cell-based
# Text: (§2) Figure 1 Structures and characterization of KUSs, novel VCP modulators. (a) Structures and IC50 values of KUS11, KUS31, KUS69, KUS94, KUS121, and KUS187. […] (b) ATPase activity assays of recombinant human […], comparing KUSs and DBeQ. (c) Immunoblot analysis of ubiquitinated proteins, an ER stress marker (CHOP), and an autophagy indicator (LC3), comparing KUSs and DBeQ. As a control, MG132, a proteasome inhibitor, was used for the analysis. Actin served as a loading control. Complete scans of the different blots are presented in Supplementary Fig. 7. (d) Comparison of KUSs and DBeQ for cell death-inducing activities. HeLa cells were treated with 50 μM DBeQ or KUSs for 24 hours. […]
# [3] = test system: whole cell soluble lysate of neuronally differentiated PC12 cells; assay: total ATPase activity in clarified whole cell lysates; assay type: biochemical
# Protocol: Figure 3 Effects of KUSs on ATPase activities, ATP levels, and acetyl-CoA levels. (a) Inhibition of ATPase activity in clarified whole cell lysates by KUS121, KUS187, and KUS94, but not KUS11. Total ATPase activities in clarified whole cell lysates from differentiated PC12 cells were measured in the absence and presence of KUSs. Relative ATPase activities are shown with values in the absence of KUS (D: DMSO) set at 100%. (b) HeLa cells were cultured in medium with low glucose (0.25 g/l) for 20 hours, with or without KUSs, and ATP levels were measured with luciferase assays. (c) HeLa cells were cultured in medium with low glucose (0.25 g/l) for 20 hours, with or without KUSs, and acetyl-CoA levels were measured. * P < 0.05, ** P < 0.01, *** P < 0.001 vs. DMSO control (Dunnett's test, n = 3).
# (§3) We measured ATPase activities by modifying the molybdate assay, which was as described previously. In the assay, 1 μg of whole cell soluble lysate of neuronally differentiated PC12 cells, or 500 ng recombinant VCP protein, was incubated in 20 μl of the ATPase assay buffer (20 mM HEPES (pH 7.4), 50 mM KCl, 5 mM MgCl2) with 100 μM [γ-^32P]ATP (18.5 GBq/mmol) (PerkinElmer) at 37°C for 20 min. After incubation, the reaction was quenched by addition of 200 μl of 8% ice-cold trichloroacetic acid solution with 1 mM K2HPO4, and then 50 μl of solution A (3.75% ammonium molybdate, 0.02 M silicotungstic acid in 3 N H2SO4) and 300 μl of n-butyl acetate were added to the reaction. The samples were mixed well and centrifuged at 12,000 × g for 1 min. Then, 200 μl aliquots from the upper organic phases were taken and their radioactivity was determined with a liquid scintillation counter for β-radiation, which determined the amounts of ^32P released.
# [4] = test system: essentially all tested cultured cells; assay: cellular toxicity on cultured cells; assay type: cell-based; settings: up to 50 μM
# HeLa cells [5] = assay: cell death-inducing activity; assay type: cell-based; settings: 50 μM, 24 hours
# Text: as §2
# recombinant VCP = recombinant VCP (Homo sapiens, UniProt P55072); assay: ATPase activity of recombinant VCP in vitro (modified molybdate assay, [γ-32P]ATP); assay type: biochemical
# Protocol: as §3
# rd10 mice = assay: rd10 mouse model of retinitis pigmentosa (SD-OCT, electroretinogram, histology, electron microscopy, western blot); assay type: in vivo; settings: 21-day-old
# Protocol: Starting 7 days after birth, KUS121 or KUS187 was administered daily (50 mg/kg) by intraperitoneal injection. […] To test the visual function of the mice, dark-adapted electroretinograms were recorded. The amplitude of the a-wave, which represents visual function of photoreceptors, was smaller in the control mice than in the KUS-treated mice (Supplementary Fig. 5b and c). The peak latency of the a-wave, which negatively correlates with visual function of photoreceptors, was delayed in the control mice as compared with the KUS-treated mice (Supplementary Fig. 5d). At age 25 days, the thinning of the outer nuclear layer (ONL) was clearly observed in the control mice (Fig. 5a). The outer nuclear layer and the junction line between the inner segment and outer segment (arrow heads in Fig. 5a), which is generally considered to be positively associated with visual function, were clearly detected in the KUS-treated but not in control mice. […] At age 29 days, the photoreceptor layer was barely detected in SD-OCT images, and electroretinogram records were almost flat in control mice. […]
# Spectral-domain optical coherence tomography (SD-OCT) examinations using Multiline OCT (Heidelberg Engineering, Heidelberg, Germany) were performed[33] in rd10 mice at ages of 21, 25, 29, and 33days. Total retinal thickness (from inner limiting membrane to Bruch membrane) in rd10 mice was measured using volume scan images[33] within a circle 0.366 mm in diameter, the center of which was adjusted to the center of the optic nerve head. […]
# Electroretinogram recording was performed to assess the visual function of rd10 mice at ages of 21, 25, 29, and 33 days. […] Electroretinograms were recorded using a gold loop corneal electrode with a light-emitting diode (Mayo Corp., Inazawa, Japan). […] The electroretinogram response signals were amplified, digitized at 10 kHz with a band-pass filter of 0.3 to 500 Hz, and analyzed (PowerLab 2/25; AD instruments, New South Wales, Australia). […]
# HeLa cells [6] = assay: relative ATP amounts per cell in tunicamycin-treated cells; assay type: cell-based; settings: Tm 0.5 μg/ml, 24 hours
# Protocol: as §1
# VCP = test system: VCP; parameters: method as in PMID 21383145; settings: reported value; read-out: in vitro IC50 (half maximal inhibitory concentration) for VCP; cited from earlier work
# Chain of recombinant VCP (P55072 whole entry, species assumed): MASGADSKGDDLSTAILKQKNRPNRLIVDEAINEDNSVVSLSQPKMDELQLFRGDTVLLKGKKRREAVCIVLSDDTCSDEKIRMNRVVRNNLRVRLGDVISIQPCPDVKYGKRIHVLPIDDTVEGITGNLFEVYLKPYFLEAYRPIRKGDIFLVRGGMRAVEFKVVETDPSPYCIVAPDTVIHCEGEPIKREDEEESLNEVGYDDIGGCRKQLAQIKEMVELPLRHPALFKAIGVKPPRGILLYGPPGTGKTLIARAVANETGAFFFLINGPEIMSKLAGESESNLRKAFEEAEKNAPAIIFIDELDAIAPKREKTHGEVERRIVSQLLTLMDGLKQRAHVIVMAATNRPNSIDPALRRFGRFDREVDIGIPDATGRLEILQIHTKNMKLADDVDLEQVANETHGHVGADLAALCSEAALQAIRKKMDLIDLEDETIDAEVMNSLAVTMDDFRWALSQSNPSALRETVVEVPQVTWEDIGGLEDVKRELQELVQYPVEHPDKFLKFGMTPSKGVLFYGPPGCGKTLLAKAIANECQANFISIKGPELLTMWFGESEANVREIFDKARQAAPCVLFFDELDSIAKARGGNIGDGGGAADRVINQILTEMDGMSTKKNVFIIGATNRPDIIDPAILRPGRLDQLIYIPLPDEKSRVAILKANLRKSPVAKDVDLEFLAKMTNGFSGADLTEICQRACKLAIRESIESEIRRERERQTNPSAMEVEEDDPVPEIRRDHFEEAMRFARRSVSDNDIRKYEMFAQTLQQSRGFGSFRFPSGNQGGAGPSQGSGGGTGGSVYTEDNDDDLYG
smiles,measurement,setting,value
COC(=O)C(C)=O [methylpyruvate],induction of ER stress (CHOP induction),[1]; 3 to 10 mM methylpyruvate,dampen the induction of ER stress
same,aggregation of laminin γ1,"HeLa cells [2]; HeLa, Tm 0.5 μg/ml, 5 hours, 3 to 10 mM methylpyruvate",ineffective in preventing the aggregation of laminin γ1
CCCCOc1c(C=O)cc(C)cc1-c1ccc(/N=N/c2cc(S(=O)(=O)O)c3ccccc3c2N)cn1 [KUS187],"induction of accumulation of ubiquitinated proteins, ER stress (CHOP), autophagy (LC3)",cellular VCP functions,did not induce any of these phenotypes
same,lowering of total ATPase activity,[3]; 100 nM compound,approximately 20%
same,lowering of total ATPase activity,[3]; 1 μM compound,~40%
same,aggregation of laminin γ1,"HeLa cells [2]; HeLa, Tm 0.5 μg/ml, 5 hours, 50 μM KUS",clearly prevented the aggregation of laminin γ1
same,apparent cellular toxicity,[4],did not manifest any apparent cellular toxicity
same,induction of cell death,HeLa cells [5],did not induce any of these phenotypes
same,IC50,recombinant VCP,200 to 300 nM and 186 nM
same,outer segment morphology by electron microscopy,rd10 mice,well preserved
same,"mean amplitude of the a-wave, dark-adapted electroretinogram","rd10 mice; 50 mg/kg daily i.p. from day 7, vs control",larger than that in control rd10 mice
Nc1ccc2cc(S(=O)(=O)O)ccc2c1/N=N/c1ccccc1 [KUS11],inhibition of total ATPase activity in clarified lysates,[3],did not show any significant inhibition
same,decrease of ATP levels in tunicamycin-treated cells,HeLa cells [6]; KUSs 50 μM,unable to prevent the tunicamycin-elicited ATP decrease
same,IC50,recombinant VCP,> 100000 nM
"c1ccc(CNc2nc(NCc3ccccc3)c3ccccc3n2)cc1 [DBeQ, reference compound]","induction of accumulation of ubiquitinated proteins, ER stress (CHOP), autophagy (LC3)",cellular VCP functions,"induced accumulation of ubiquitinated proteins, ER stress, autophagy"
same,induction of cell death,HeLa cells [5],eventually cell death
same,IC50,VCP,1000 nM
Nc1ncnc2c1ncn2[C@@H]1O[C@H](COP(=O)(O)OP(=O)(O)OP(=O)(O)O)[C@@H](O)[C@H]1O [ATP],induction of ER stress (CHOP induction),[1]; 0.1 mM ATP,dampen the induction of ER stress
same,decrease of ATP levels in tunicamycin-treated cells,HeLa cells [6]; ATP 0.1 and 1 mM,prevented decreases of ATP levels
same,aggregation of laminin γ1,"HeLa cells [2]; HeLa, Tm 0.5 μg/ml, 5 hours, 0.1 mM ATP",ineffective in preventing the aggregation of laminin γ1
same,aggregation of laminin γ1,"HeLa cells [2]; HeLa, Tm 0.5 μg/ml, 5 hours, 1 mM ATP",clearly prevented the aggregation of laminin γ1
same,aggregation of laminin γ1,"HeLa cells [2]; tunicamycin-treated HeLa cells, ATP at 0.3 to 1 mM",prevented the aggregation of laminin γ1
